Consider 15 molecules from US20210130339A1, “COMPOUNDS” (GLAXOSMITHKLINE INTELLECTUAL PROPERTY DEVELOPMENT LIMITED, priority 2017, published 2021).

Where “and” joins values, the source holds several entries; their conditions need not be identical. Equal values may be shown once. Where only a bound is given, the exact number is not on record here.

Assay [1] deals with T1, Full length G2019 human LRRK2 (Homo sapiens, UniProt Q5S007).
T1 construct: purified recombinant Full length Flag-LRRK2 in assay buffer; made in house; host or cells: HEK293 6E cells transduced with BacMam virus (virus generated in Sf9 cells)
Nature of the assay: Full length G2019 human LRRK2 Inhibition Mass Spectrometry assay. To be noted: LRRKtide substrate, RapidFire mass spectrometry; read-out: pIC50 in the Full length G2019 human LRRK2 Inhibition Mass Spectrometry assay (converted). The assay is classed as biochemical. As for the experimental part:
a. Full Length G2019 Human LRRK2 Inhibition Mass Spectrometry Assay
This assay for Leucine Rich Repeat Kinase 2 (LRRK2) inhibition is based on the direct measurement of the peptide ‘LRRKtide’ (LRRKtide: RLGRDKYKT*LRQIRQ and “*” refers to the site of phosphorylation.) and phosphorylated ‘LRRKtide’ using a high throughput RapidFire mass spectrometry assay. Inhibitors are compounds that reduce the conversion of LRRKtide to phospho-LRRKtide.
HEK293 6E cells were incubated in a 37° C. incubator with a humidified atmosphere of 5% CO2 on an orbital shaker rotating at 110 rpm. On the day of transduction, the cell viability was higher than 98% and the cell density was in the range of 1×10^6˜1.5×10^6 cells/ml. HEK293 6E cells were centrifuged at 1,000 rpm for 10 min, and then the cells were resuspended in fresh Freestyle 293 expression medium (Invitrogen:12338) with 0.1% F-68 (Invitrogen:24040-032) but without antibiotics (G418) at density of 1×10^6 cells/ml. BacMam virus with Flag-hu LRRK2 (genotypically normal) gene was centrifuged at 40,000 g for 2 hours, then resuspended in fresh Freestyle 293 expression medium. The resuspended virus was added into the cells in at MOI of 10. The cells were incubated in a 37° C. incubator with a humidified atmosphere of 5% CO2 in air on an orbital shaker rotating at 110 rpm. Cultures were harvested at approximately 48 hours post-transduction by centrifugation at 4,000 rpm for 20 min and pellets were frozen for purification.
The suspended cells were lysed by sonication on ice for 30 min (2 secs on/4 sec off, 20% amplitude), and centrifuged at 10,000 rpm for 30 minutes at 4° C. The supernatant was incubated with 1 mL per litre of cell culture of anti-Flag magnetic beads (Sigma-Aldrich: M8823) at 4° C. for 3 hours, then the beads were washed by 5 mL (5 column volume) binding buffer (50 mM Tris pH7.5@ 4C, 500 mM NaCl, 0.5 mM EDTA, 0.1% TritonX-100, 10% glycerol, freshly add 2 mM DTT) for three times. The Flag tagged LRRK2 proteins were eluted by Elution buffer (50 mM Tris pH7.5@ 4C, 500 mM NaCl, 0.5 mM EDTA, 0.1% TritonX-100, 10% glycerol, freshly add 2 mM DTT, 250 ug/ml Flag peptide (Sigma-Aldrich:F3290)) at 4° C. for 2 hours. Flag peptide was removed by Zeba Spin Desalting Columns, 7K MWCO (Thermo-Fisher: 89893) and the buffer of eluted LRRK2 proteins was exchanged into Storage Buffer (50 mM Tris pH7.5@4C, 150 mM NaCl, 0.5 mM EDTA, 0.02% Triton X-100, 2 mM DTT and 50% Glycerol) using Amicon Ultra Centrifugal Filter Units (100 kD) (Merck: UFC910096). Fractions containing LRRK2 proteins were pooled, aliquoted and stored at −80° C. Protein concentration was determined by Bradford protein assay, and protein purity was analyzed by NuPAG Novex 4-12% Bis-Tris Protein Gels (Invitrogen: NP0322BOX).
• 1) A 10 mM test compound was dissolved in 100% DMSO and serially diluted 1 in 4. 100 nL of this dilution series was then added to a 384 well, v bottom polypropylene plate, excluding columns 6 and 18. 100 nL of DMSO was added to columns 6 and 18 as controls wells. Assay dilution gave a top final assay concentration of test compound of 100 μM • 2) 50 μl of 1% formic acid in laboratory grade water was added to column 18 using a multidrop combi dispenser to act as a pre stopped assay control. • 3) 5 μl of ‘enzyme solution’ containing 50 nM of purified recombinant Full length Flag-LRRK2 in assay buffer (50 mM Hepes (pH 7.2), 10 mM MgCl2, 150 mM NaCl, 5% glycerol, 0.0025% triton X-100 and 1 mM DTT) was added to all wells using a multidrop combi dispenser, giving a final assay concentration of 25 nM LRRK2 enzyme. […] Test plates were then incubated for 30 minutes at room temperature. • 4) 5 μl ‘substrate solution’ containing 50 uM LRRKtide peptide substrate and 4 mM ATP was added to all wells of the plate using a multidrop combi dispenser giving a final assay concentration of 25 uM LRRKtide and 2 mM ATP. Test plates were then incubated for 1 hour at room temperature. […]

In assay [2] the target is T2, recombinant full length LRRK2 (Homo sapiens, UniProt Q5S007).
T2 construct: A BacMam virus expressing full length recombinant LRRK2 was purchased from Invitrogen; host or cells: SH-SY5Y human neuroblastoma cells transduced with BacMam LRRK2 virus (MOI 50)
As to the kind of experiment: Recombinant cellular LRRK2 AlphaScreen assay. The assay is classed as cell-based. Conditions: LRRK2 Ser935 phosphorylation, SH-SY5Y cells over-expressing recombinant full length LRRK2; read-out: pIC50 in the recombinant cellular LRRK2 AlphaScreen assay (converted). The source says: b. Recombinant Cellular LRRK2 AlphaScreen Assay
To determine the activity of compounds against LRRK2 kinase activity in cells, the observed LRRK2 kinase-dependent modulation of LRRK2 Ser 935 phosphorylation (Dzamko et al., 2010, Biochem. J. 430: 405-413) was utilized to develop a quantitative 384 well plate-based immunoassay of LRRK2 Ser935 phosphorylation in the human neuroblastoma cell line SH-SY5Y, engineered to over-express recombinant full length LRRK2 protein. A BacMam virus expressing full length recombinant LRRK2 was purchased from Invitrogen and amplified by inoculation of SF-9 cells at MOI 0.3 for 4-5 days in Sf-900 III SFM medium supplemented with 3% fetal bovine serum. Infected cell cultures were then centrifuged at 2000 g for 20 minutes, viral supernatant titer determined by anti-gp64 plaque assay and stored at 4° C. Affinity-purified anti-phospho LRRK2 Ser935 sheep polyclonal antibody (Dzamko et al., 2010, Biochem. J. 430: 405-413) was biotinylated by standard methods (PerkinElmer). Anti-LRRK2 rabbit polyclonal antibody was purchased from Novus Biologicals. AlphaScreen Protein A IgG Kit (including acceptor and donor beads) was purchased from Perkin Elmer. SH-SY5Y cells were grown in DMEM/F12 medium with 10% dialysed fetal bovine serum and harvested by treatment with 0.5% trypsin-EDTA for 5 minutes at 37° C. followed by centrifugation at 1000 rpm for 4 minutes. The cell pellet was resuspended in Opti-MEM reduced serum media (Invitrogen) at 200,000 cells/ml and mixed with the BacMam LRRK2 virus at MOI=50. 50 μl cell solutions were then dispensed to each well of a 384-well plate and incubated at 37° C., 5% CO2 for 24 hours. Serial dilutions of test compounds were prepared in Opti-MEM reduced serum media (Invitrogen) and 5.6 ul transferred from compound plate to cell assay plate to achieve a top final assay concentration of 10 uM. DMSO was used in certain wells as controls. Cells were incubated at 37° C., 5% CO2 for 60 minutes. The medium was then removed and cells lysed by addition of 20 ul cell lysis buffer (Cell Signaling Technology) and incubation at 4° C. for 20 minutes. 10 ul of antibody/acceptor bead mix [(1/1000 biotinylated-pS935 LRRK2 antibody, 1/1000 total-LRRK2 antibody, 1/100 Acceptor beads in AlphaScreen detection buffer (25 mM Hepes (pH 7.4), 0.5% Triton X-100, 1 mg/ml Dextran 500 and 0.1% BSA)] was then added to each well and plates incubated for 2 hours at ambient temperature in the dark. 10 μl of donor beads solution (1/33.3 donor beads in AlphaScreen detection buffer) was then added to each well. Following incubation for a further 2 hours at ambient temperature in the dark, plates were read on an EnVision™ plate reader at emission 520-620 nm with excitation 680 nm. Dose response curve data was based on sigmoidal dose-response model.
For orientation: Alpha assays give light when donor and acceptor beads are brought close together.

T2 sequence (Q5S007 whole entry): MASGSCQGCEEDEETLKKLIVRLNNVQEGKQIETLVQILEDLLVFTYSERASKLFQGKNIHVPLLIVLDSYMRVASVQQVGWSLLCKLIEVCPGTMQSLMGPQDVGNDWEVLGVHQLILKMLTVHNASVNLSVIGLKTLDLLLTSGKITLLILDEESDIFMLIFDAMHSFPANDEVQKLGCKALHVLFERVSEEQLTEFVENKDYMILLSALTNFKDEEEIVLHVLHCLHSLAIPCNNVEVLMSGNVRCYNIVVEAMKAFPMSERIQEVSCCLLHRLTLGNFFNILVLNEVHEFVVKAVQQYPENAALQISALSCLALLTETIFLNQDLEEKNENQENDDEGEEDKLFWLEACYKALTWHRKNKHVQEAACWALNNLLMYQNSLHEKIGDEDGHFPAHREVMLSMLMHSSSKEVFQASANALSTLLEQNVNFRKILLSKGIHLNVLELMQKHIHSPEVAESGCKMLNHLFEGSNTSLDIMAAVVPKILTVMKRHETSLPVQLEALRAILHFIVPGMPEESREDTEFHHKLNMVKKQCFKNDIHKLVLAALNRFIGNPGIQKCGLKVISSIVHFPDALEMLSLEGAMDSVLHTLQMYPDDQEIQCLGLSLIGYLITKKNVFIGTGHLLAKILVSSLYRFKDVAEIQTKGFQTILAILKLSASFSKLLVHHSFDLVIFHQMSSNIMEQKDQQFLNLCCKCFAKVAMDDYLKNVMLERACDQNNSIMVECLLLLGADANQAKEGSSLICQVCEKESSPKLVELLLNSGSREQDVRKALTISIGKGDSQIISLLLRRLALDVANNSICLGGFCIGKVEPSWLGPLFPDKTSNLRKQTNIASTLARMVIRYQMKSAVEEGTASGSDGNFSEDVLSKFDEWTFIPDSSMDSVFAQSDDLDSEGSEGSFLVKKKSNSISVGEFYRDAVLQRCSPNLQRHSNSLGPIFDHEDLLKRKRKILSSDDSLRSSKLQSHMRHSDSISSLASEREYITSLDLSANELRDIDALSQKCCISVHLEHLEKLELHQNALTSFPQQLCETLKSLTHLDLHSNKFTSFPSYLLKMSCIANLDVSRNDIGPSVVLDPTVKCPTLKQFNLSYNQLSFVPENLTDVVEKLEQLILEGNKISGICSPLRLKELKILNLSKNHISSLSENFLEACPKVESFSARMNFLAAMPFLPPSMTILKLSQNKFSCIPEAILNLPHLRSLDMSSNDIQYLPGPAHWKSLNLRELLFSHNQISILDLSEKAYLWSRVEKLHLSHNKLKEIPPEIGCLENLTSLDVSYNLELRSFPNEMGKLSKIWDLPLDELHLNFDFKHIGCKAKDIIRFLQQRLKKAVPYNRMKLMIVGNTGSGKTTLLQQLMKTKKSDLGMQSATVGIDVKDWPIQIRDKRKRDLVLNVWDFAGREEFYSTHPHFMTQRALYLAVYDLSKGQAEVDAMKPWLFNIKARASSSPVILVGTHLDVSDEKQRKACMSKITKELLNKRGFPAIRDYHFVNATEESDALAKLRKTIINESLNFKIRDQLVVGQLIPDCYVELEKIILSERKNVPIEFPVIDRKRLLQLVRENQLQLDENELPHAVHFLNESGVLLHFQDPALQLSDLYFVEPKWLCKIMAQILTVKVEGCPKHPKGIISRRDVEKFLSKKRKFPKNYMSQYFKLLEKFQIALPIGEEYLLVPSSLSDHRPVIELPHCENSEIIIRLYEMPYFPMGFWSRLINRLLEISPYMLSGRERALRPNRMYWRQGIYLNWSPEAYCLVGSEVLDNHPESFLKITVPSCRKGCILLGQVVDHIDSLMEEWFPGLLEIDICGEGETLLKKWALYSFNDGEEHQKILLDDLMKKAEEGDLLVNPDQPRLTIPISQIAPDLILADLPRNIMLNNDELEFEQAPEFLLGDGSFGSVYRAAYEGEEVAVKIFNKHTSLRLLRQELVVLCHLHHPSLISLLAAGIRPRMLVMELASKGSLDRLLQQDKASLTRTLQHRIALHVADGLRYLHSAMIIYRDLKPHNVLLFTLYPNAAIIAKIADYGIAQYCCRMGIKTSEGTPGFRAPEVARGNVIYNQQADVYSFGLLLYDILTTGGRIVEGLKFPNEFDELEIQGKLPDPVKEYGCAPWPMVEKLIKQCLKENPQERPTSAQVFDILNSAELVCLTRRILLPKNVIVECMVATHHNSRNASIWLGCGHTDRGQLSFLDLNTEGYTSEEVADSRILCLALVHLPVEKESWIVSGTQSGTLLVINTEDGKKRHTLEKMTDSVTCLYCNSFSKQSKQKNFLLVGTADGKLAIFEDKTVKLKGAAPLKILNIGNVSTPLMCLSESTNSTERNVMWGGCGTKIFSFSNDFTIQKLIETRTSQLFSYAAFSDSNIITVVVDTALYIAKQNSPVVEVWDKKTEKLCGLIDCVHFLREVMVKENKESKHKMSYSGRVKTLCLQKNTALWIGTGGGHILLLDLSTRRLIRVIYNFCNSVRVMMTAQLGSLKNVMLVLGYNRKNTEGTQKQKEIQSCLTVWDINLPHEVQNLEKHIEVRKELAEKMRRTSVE
T1 sequence (Q5S007 with tags, fused parts or gaps R50H): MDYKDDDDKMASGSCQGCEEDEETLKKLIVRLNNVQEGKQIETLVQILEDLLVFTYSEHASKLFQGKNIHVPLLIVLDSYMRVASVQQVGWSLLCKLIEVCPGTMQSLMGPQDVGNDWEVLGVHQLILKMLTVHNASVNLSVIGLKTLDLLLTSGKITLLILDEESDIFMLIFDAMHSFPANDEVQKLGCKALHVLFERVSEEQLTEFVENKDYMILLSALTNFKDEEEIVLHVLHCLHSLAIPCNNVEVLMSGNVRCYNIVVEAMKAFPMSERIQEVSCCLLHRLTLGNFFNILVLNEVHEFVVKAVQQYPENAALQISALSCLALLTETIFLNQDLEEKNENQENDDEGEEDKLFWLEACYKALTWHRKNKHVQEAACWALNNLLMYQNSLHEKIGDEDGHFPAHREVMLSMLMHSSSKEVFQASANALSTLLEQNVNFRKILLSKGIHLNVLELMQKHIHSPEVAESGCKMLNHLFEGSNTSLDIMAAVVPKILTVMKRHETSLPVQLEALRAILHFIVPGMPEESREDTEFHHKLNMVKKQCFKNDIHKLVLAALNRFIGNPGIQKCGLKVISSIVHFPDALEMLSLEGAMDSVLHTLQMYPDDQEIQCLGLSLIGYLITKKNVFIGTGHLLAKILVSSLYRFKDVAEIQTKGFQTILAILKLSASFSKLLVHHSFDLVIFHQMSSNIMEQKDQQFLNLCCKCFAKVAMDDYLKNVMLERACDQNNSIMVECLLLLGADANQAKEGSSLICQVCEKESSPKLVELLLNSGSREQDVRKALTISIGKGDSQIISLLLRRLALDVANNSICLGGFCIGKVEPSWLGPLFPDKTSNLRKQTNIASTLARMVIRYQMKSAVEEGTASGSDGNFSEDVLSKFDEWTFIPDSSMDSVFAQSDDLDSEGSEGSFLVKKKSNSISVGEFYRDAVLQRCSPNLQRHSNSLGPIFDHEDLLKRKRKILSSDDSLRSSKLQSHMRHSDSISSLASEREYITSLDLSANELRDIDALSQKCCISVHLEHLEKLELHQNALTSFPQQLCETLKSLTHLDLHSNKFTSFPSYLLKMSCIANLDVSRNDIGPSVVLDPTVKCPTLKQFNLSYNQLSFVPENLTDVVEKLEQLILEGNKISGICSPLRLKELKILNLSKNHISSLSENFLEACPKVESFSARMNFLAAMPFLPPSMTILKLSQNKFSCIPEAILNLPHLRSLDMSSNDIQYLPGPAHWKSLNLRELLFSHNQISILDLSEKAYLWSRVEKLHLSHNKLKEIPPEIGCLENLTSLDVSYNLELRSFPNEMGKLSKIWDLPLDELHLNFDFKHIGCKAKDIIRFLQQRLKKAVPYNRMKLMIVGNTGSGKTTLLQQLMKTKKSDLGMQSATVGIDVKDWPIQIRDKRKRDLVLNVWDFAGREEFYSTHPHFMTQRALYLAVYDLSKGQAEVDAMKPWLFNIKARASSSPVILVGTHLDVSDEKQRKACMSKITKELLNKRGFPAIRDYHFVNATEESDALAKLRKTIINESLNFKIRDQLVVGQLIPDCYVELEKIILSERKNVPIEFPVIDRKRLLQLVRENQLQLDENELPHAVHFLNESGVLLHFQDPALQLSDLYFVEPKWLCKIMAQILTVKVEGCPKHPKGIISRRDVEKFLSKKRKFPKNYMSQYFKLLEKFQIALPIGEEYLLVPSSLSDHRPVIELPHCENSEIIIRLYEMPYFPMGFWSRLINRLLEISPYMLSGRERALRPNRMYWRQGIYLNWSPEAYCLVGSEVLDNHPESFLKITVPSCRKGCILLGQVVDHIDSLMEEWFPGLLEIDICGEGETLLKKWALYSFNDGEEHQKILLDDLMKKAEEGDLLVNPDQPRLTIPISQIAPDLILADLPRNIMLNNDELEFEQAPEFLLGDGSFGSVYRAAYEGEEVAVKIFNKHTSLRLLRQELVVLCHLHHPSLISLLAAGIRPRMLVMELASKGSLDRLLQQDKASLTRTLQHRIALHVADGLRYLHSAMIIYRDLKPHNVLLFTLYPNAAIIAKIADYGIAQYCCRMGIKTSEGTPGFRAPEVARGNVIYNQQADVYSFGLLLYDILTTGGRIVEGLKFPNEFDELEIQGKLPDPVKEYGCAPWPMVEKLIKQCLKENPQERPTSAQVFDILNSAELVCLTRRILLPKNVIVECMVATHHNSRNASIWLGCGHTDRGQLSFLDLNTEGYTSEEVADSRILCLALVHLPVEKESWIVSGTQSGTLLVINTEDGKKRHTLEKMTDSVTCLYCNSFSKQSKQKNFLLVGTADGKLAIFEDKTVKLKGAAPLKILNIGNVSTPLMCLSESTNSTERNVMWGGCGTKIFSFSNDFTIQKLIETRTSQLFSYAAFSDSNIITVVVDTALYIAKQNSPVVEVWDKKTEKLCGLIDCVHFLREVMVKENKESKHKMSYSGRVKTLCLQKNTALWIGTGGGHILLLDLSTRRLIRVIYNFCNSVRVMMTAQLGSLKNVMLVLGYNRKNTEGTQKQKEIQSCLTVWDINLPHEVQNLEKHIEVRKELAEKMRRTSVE

As for `Cc1nc(N2CCO[C@H](CO)C2)cc(-n2ncc3cc(C)c(C4CCN(C5CCOC5)CC4)cc32)n1` (single isomer, unassigned) [Example E1], the IC50 in assay [1] was 79.4 nM; in assay [2], ≤ 100 nM and 126 nM.

As to `Cc1nc(N2CCO[C@@H](CO)C2)cc(-n2ncc3cc(C)c(C4CCN([C@H]5CCOC5)CC4)cc32)n1` (single isomer, unassigned) [Example E4], the figures for the IC50 in assay [1] and in assay [2] were 25.1 nM and 100 nM, respectively.

As for `Cc1nc(N2CC(O)C2)cc(-n2ncc3cc(C)c(C4CCN(C5CCOC5)CC4F)cc32)n1` (single isomer, unassigned) [Example E13, cis-1-(6-(6-(3-Fluoro-1-(tetrahydrofuran-3-yl)piperidin-4-yl)-5-methyl-1H-indazol-1-yl)-2-methylpyrimidin-4-yl)azetidin-3-ol], the IC50 in assay [1] was at most 1000 nM; in assay [2], at most 100 nM.

With `COc1nc(N2CC(O)C2)cc(-n2ncc3cc(Cl)c(C4CCN(C5CCOC5)CC4)cc32)n1` (single isomer, unassigned) [Example E30, 1-(6-(5-Chloro-6-(1-(tetrahydrofuran-3-yl)piperidin-4-yl)-1H-indazol-1-yl)-2-methoxy-pyrimidin-4-yl)azetidin-3-ol], the results for the IC50 in assay [1] and in assay [2] were at most 1000 nM and at most 100 nM, respectively.

With `[2H]C1(N2CCC(c3cc4c(cnn4-c4cc(N5CCO[C@H](CO)C5)nc(C)n4)cc3C)CC2)CCOC1` (single isomer, unassigned) [Example E33], the IC50 in assay [1] is at most 1000 nM.

Take `[2H]C1(N2CCC(c3cc4c(cnn4-c4cc(N5CCO[C@H](CO)C5)nc(C)n4)cc3C)CC2)CCOC1` (single isomer, unassigned) [Example E34]: the IC50 in assay [1] is ≤ 1000 nM and 63.1 nM; in assay [2], ≤ 100 nM and 100 nM.

Consider `Cc1nc(N2CCO[C@@H](CO)C2)cc(-n2ncc3cc(C)c(C4CCN(C5CCOC5)CC4F)cc32)n1` (single isomer, unassigned) [Example E102], for which the figures for the IC50 in assay [1] and in assay [2] were at most 100 nM and at most 1000 nM, respectively.

With `Cc1nc(N2CCO[C@H](CO)C2)cc(-n2ncc3cc(C)c(C4CCN(C5CCOC5)CC4F)cc32)n1` (single isomer, unassigned) [Example E106], the IC50 in assay [1] is at most 100 nM; in assay [2], at most 1000 nM.

Take `Cc1nc(N2CCOC[C@H]2CO)cc(-n2ncc3cc(C)c(C4CCN(C5CCOC5)CC4)cc32)n1` (single isomer, unassigned) [Example E111]: in assay [1], the IC50 is at most 1000 nM.

On to `Cc1nc(N2CC(C)(O)C2)cc(-n2ncc3cc(Cl)c(C4CCN(C5CCOC5)CC4)cc32)n1` (single isomer, unassigned) [Example E127, 1-(6-(5-chloro-6-(1-(tetrahydrofuran-3-yl)piperidin-4-yl)-1H-indazol-1-yl)-2-methyl-pyrimidin-4-yl)-3-methylazetidin-3-ol], for which the IC50 in assay [1] was at most 100 nM.

As for `Cc1nc(OC2CC(O)C2)cc(-n2ncc3cc(C)c(C4CCN(C5CCOC5)CC4)cc32)n1` (single isomer, unassigned) [Example E145, 3-((2-methyl-6-(5-methyl-6-(1-(tetrahydrofuran-3-yl)piperidin-4-yl)-1H-indazol-1-yl)pyrimidin-4-yl)oxy)cyclobutanol], the IC50 in assay [2] is at most 1000 nM.

On to `Cc1nc(OC2CC(O)C2)cc(-n2ncc3cc(C)c(C4CCN(C5CCOC5)CC4)cc32)n1` (single isomer, unassigned) [Example E146, 3-((2-methyl-6-(5-methyl-6-(1-(tetrahydrofuran-3-yl)piperidin-4-yl)-1H-indazol-1-yl)pyrimidin-4-yl)oxy)cyclobutanol], for which the IC50 in assay [1] is at most 1000 nM.

Regarding `[2H]C1([2H])CC(c2cc3c(cnn3-c3cc(N4CCO[C@@H](CO)C4)nc(C)n3)cc2C)CC([2H])([2H])N1[C@H]1CCOC1` [Example E96, ((R)-4-(2-methyl-6-(5-methyl-6-(1-((S)-tetrahydrofuran-3-yl)piperidin-4-yl-2,2,6,6-d4)-1H-indazol-1-yl)pyrimidin-4-yl)morpholin-2-yl)methanol], in assay [2], the IC50 is ≤ 100 nM and 100 nM.

As for `Cc1nc(N[C@@H]2CCOC2)cc(-n2ncc3cc(C)c(C4CCN(C5CCOC5)CC4)cc32)n1` (stereo partly drawn) [Example E143, 2-methyl-6-(5-methyl-6-(1-(tetrahydrofuran-3-yl)piperidin-4-yl)-1H-indazol-1-yl)-N—((R)-tetrahydrofuran-3-yl)pyrimidin-4-amine], the IC50 in assay [2] was at most 1000 nM.

With `Cc1nc(N[C@H]2CCOC2)cc(-n2ncc3cc(C)c(C4CCN(C5CCOC5)CC4)cc32)n1` (stereo partly drawn) [Example E144, 2-methyl-6-(5-methyl-6-(1-(tetrahydrofuran-3-yl)piperidin-4-yl)-1H-indazol-1-yl)-N—((S)-tetrahydrofuran-3-yl)pyrimidin-4-amine], the IC50 in assay [2] was at most 1000 nM.
